How the values were obtained:
[1] = target: T1, Human PDGFRβ, cytoplasmic domain (GST-PDGFRβ) (Homo sapiens, UniProt P09619); experiment: Human PDGFRβ biochemical inhibition assay (off-chip Mobility Shift Assay)
T1 construct: made in house
Outline: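 GST-tagged cytoplasmic domain (aa 557-1106) from baculovirus was incubated 1 h at room temperature with compound, CSKtide, ATP at Km and Mg²⁺ in HEPES buffer, pH 7.5. Phosphorylated and unphosphorylated peptide were separated by off-chip mobility shift, and the product ratio P/(P+S) gave percent inhibition.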

[2] = target: T2, Human PDGFRα, cytoplasmic domain (GST-PDGFRα) (Homo sapiens, UniProt P16234); experiment: Human PDGFRα biochemical inhibition assay (off-chip Mobility Shift Assay)
T2 construct: made in house
T2 sequence (P16234 550-1089 T674I): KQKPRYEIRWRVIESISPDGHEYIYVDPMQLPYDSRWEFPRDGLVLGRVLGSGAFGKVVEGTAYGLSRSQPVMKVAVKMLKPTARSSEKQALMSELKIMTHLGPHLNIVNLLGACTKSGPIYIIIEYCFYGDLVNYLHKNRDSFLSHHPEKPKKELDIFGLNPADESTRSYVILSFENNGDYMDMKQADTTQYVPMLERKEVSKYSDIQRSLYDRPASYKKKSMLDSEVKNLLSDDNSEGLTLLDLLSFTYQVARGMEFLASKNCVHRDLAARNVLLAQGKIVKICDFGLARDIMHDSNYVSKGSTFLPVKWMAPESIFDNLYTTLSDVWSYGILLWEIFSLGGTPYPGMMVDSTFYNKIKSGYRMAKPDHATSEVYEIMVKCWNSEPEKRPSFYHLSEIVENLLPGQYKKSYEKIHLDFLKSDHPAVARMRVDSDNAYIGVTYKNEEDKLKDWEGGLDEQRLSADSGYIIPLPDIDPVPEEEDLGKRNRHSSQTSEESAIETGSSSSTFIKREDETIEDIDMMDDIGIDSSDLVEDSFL

T1 sequence (P09619 with tags, fused parts or gaps): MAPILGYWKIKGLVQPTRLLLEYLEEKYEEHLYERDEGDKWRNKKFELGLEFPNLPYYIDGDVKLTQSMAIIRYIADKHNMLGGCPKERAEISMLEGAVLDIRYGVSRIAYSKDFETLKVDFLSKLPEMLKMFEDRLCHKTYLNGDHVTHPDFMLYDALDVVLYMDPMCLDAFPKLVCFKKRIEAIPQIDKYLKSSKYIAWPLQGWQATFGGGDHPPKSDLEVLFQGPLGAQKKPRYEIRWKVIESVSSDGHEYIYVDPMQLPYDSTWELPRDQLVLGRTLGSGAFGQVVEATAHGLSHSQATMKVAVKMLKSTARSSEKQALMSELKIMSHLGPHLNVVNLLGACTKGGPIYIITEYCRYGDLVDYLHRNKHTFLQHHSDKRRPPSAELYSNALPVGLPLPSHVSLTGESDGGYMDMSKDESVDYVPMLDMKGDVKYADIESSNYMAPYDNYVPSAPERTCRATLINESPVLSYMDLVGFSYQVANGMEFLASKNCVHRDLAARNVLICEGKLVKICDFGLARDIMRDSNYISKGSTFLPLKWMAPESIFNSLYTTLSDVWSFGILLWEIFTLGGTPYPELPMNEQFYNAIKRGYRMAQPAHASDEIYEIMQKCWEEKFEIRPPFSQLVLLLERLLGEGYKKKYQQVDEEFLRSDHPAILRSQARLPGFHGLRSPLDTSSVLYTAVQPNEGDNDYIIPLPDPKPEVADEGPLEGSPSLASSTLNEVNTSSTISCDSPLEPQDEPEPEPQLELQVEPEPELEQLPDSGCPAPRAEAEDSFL

Row | SMILES | IC50 [1] | IC50 [2]
1 | CCn1cc2ncc(N[C@@H](C)c3cccc(NC(=O)c4ccc(OC(F)(F)F)c(C)c4)c3)nc2n1 [Compound 452, (S)-N-(3-(1-((2-ethyl-2H-pyrazolo[3,4-b]pyrazin-6-yl)amino)ethyl)phenyl)-3-methyl-4-(trifluoromethoxy)benzamide] | < 300 nM | < 300 nM
2 | CCn1cc2ncc(N[C@@H](C)c3cc(NC(=O)c4ccc(CN5CCCC5)c(C(F)(F)F)c4)ccc3F)nc2n1 [Compound 443, (S)-N-(3-(1-((2-ethyl-2H-pyrazolo[3,4-b]pyrazin-6-yl)amino)ethyl)-4-fluorophenyl)-4-(pyrrolidin-1-ylmethyl)-3-(trifluoromethyl)benzamide] | < 300 nM | < 300 nM
3 | CCn1cc2ncc(N[C@@H](C)c3cccc(NC(=O)Cc4cc(F)ccc4F)c3)nc2n1 [Compound 640, (S)-2-(2,5-difluorophenyl)-N-(3-(1-((2-ethyl-2H-pyrazolo[3,4-b]pyrazin-6-yl)amino)ethyl)phenyl)acetamide] | 300 to 1000 nM | < 300 nM
4 | CCn1cc2ncc(N[C@@H](C)c3cccc(NC(=O)c4cc(F)c(CN5CCN(C)CC5)c(Cl)c4)c3)nc2n1 [Compound 489, (S)-3-chloro-N-(3-(1-((2-ethyl-2H-pyrazolo[3,4-b]pyrazin-6-yl)amino)ethyl)phenyl)-5-fluoro-4-((4-methylpiperazin-1-yl)methyl)benzamide] | < 300 nM | < 300 nM
5 | Cc1cncc(C(=O)Nc2cccc([C@H](C)Nc3cnn4ccccc34)c2)c1 [Compound 20, (S)-5-methyl-N-(3-(1-(pyrazolo[1,5-a]pyridin-3-ylamino)ethyl)phenyl)nicotinamide] | ≥ 1000 nM | ≥ 1000 nM
6 | Cc1n[nH]c2ncc(N[C@@H](C)c3cccc(NC(=O)c4cnn(CCF)c4)c3)nc12 [Compound 544, (S)-1-(2-fluoroethyl)-N-(3-(1-((3-methyl-1H-pyrazolo[3,4-b]pyrazin-5-yl)amino)ethyl)phenyl)-1H-pyrazole-4-carboxamide] | < 300 nM | < 300 nM
7 | CCn1cc2ncc(N[C@@H](C)c3cccc(NC(=O)c4cnc(N5CCOCC5)c(C)c4)c3)nc2n1 [Compound 358, (S)-N-(3-(1-((2-ethyl-2H-pyrazolo[3,4-b]pyrazin-6-yl)amino)ethyl)phenyl)-5-methyl-6-morpholinonicotinamide] | < 300 nM | < 300 nM
8 | CCn1cc2ncc(N[C@@H](C)c3cc(NC(=O)c4ccc(CN5CCOCC5)c(C)c4)ccc3C)nc2n1 [Compound 523, (S)-N-(3-(1-((2-ethyl-2H-pyrazolo[3,4-b]pyrazin-6-yl)amino)ethyl)-4-methylphenyl)-3-methyl-4-(morpholinomethyl) benzamide] | < 300 nM | < 300 nM
9 | CCn1ccc2ncc(N[C@@H](C)c3cccc(NC(=O)c4cncc(C)c4)c3)nc21 [Compound 82, (S)-N-(3-(1-((5-ethyl-5H-pyrrolo[2,3-b]pyrazin-3-yl)amino)ethyl)phenyl)-5-methylnicotinamide] | 300 to 1000 nM | < 300 nM
10 | CCn1cc2ncc(N[C@@H](C)c3cc(NC(=O)c4cnn(C(C)C)c4)ccc3F)nc2n1 [Compound 313, (S)-N-(3-(1-((2-ethyl-2H-pyrazolo[3,4-b]pyrazin-6-yl)amino)ethyl)-4-fluorophenyl)-1-isopropyl-1H-pyrazole-4-carboxamide] | < 300 nM | < 300 nM
11 | CCOc1ccc(C(=O)Nc2cccc([C@H](C)Nc3cnc4[nH]cc(C)c4n3)c2)cn1 [Compound 570, (S)-6-ethoxy-N-(3-(1-((7-methyl-5H-pyrrolo[2,3-b]pyrazin-2-yl)amino)ethyl)phenyl)nicotinamide] | < 300 nM | < 300 nM
12 | CCn1cc2ncc(N[C@@H](C)c3cccc(NC(=O)c4ccc(CN5CCCC5)c(C(F)(F)F)c4)c3)nc2n1 [Compound 425, (S)-N-(3-(1-((2-ethyl-2H-pyrazolo[3,4-b]pyrazin-6-yl)amino)ethyl)phenyl)-4-(pyrrolidin-1-ylmethyl)-3-(trifluoromethyl)benzamide] | < 300 nM | < 300 nM
13 | C[C@H](Nc1cnc2cnn(C)c2n1)c1cccc(NC(=O)c2cnc3ccsc3c2)c1 [Compound 49, (S)-N-(3-(1-((1-methyl-1H-pyrazolo[3,4-b]pyrazin-6-yl)amino)ethyl)phenyl) thieno[3,2-b]pyridinc-6-carboxamide] | < 300 nM | < 300 nM
14 | CCn1cc2ncc(N[C@@H](C)c3cccc(NC(=O)c4cnc(COC)s4)c3)nc2n1 [Compound 338, (S)-N-(3-(1-((2-ethyl-2H-pyrazolo[3,4-b]pyrazin-6-yl)amino)ethyl)phenyl)-2-(methoxymethyl)thiazole-5-carboxamide] | 300 to 1000 nM | < 300 nM
15 | C[C@H](Nc1cnc2cnn(C)c2n1)c1cccc(NC(=O)c2cc(C(F)(F)F)nn2C)c1 [Compound 160, (S)-1-methyl-N-(3-(1-((1-methyl-1H-pyrazolo[3,4-b]pyrazin-6-yl)amino)ethyl)phenyl)-3-(trifluoromethyl)-1H-pyrazole-5-carboxamide] | < 300 nM | < 300 nM
16 | CCn1cc2ncc(N[C@@H](C)c3cc(NC(=O)c4cc(C)c(CN5CCN(C)CC5)c(F)c4)ccc3C)nc2n1 [Compound 528, (S)-N-(3-(1-((2-ethyl-2H-pyrazolo[3,4-b]pyrazin-6-yl)amino)ethyl)-4-methylphenyl)-3-fluoro-5-methyl-4-((4-methylpiperazin-1-yl)methyl) benzamide] | < 300 nM | < 300 nM
17 | C[C@H](Nc1cnc2[nH]ccc2n1)c1cccc(NC(=O)c2ccc(OC(F)F)nc2)c1 [Compound 595, (S)-N-(3-(1-((5H-pyrrolo[2,3-b]pyrazin-2-yl)amino)ethyl)phenyl)-6-(difluoromethoxy)nicotinamide] | < 300 nM | < 300 nM
18 | CCn1cc2ncc(N[C@@H](C)c3cccc(NC(=O)c4ccc(CN5CC[C@@H](F)C5)c(C)c4)c3)nc2n1 [Compound 469, N-(3-((S)-1-((2-ethyl-2H-pyrazolo[3,4-b]pyrazin-6-yl)amino)ethyl)phenyl)-4-(((R)-3-fluoropyrrolidin-1-yl)methyl)-3-methylbenzamide] | < 300 nM | < 300 nM
19 | CCc1ccc(CC(=O)Nc2cccc([C@H](C)Nc3cnc4cn(CC)nc4n3)c2)nc1 [Compound 712, (S)-N-(3-(1-((2-ethyl-2H-pyrazolo[3,4-b]pyrazin-6-yl)amino)ethyl)phenyl)-2-(5-ethylpyridin-2-yl)acetamide] | ≥ 1000 nM | < 300 nM
20 | Cc1n[nH]c2ncc(N[C@@H](C)c3cccc(NC(=O)c4ccc(C(F)(F)F)nc4)c3)nc12 [Compound 534, (S)-N-(3-(1-((3-methyl-1H-pyrazolo[3,4-b]pyrazin-5-yl)amino)ethyl)phenyl)-6-(trifluoromethyl)nicotinamide] | < 300 nM | < 300 nM
21 | Cc1cncc(C(=O)Nc2cccc([C@H](C)Nc3cnc4cnn(-c5cccnc5)c4n3)c2)c1 [Compound 273, (S)-5-methyl-N-(3-(1-((1-(pyridin-3-yl)-1H-pyrazolo[3,4-b]pyrazin-6-yl)amino)ethyl)phenyl)nicotinamide] | < 300 nM | < 300 nM
22 | Cc1cncc(C(=O)Nc2cccc([C@H](C)Nc3cnc4cn(CC(C)C)nc4n3)c2)c1 [Compound 276, (S)-N-(3-(1-((2-isobutyl-2H-pyrazolo[3,4-b]pyrazin-6-yl)amino)ethyl)phenyl)-5-methylnicotinamide] | 300 to 1000 nM | 300 to 1000 nM
23 | C[C@H](Nc1cnc2[nH]cc(-c3cnn(C)c3)c2n1)c1cccc(NC(=O)c2cnc(C3CC3)s2)c1 [Compound 578, (S)-2-cyclopropyl-N-(3-(1-((7-(1-methyl-1H-pyrazol-4-yl)-5H-pyrrolo[2,3-b]pyrazin-2-yl)amino)ethyl)phenyl)thiazole-5-carboxamide] | < 300 nM | < 300 nM
24 | CCn1cc2ncc(N[C@@H](C)c3cccc(NC(=O)c4cnc(-c5cnn(C)c5)s4)c3)nc2n1 [Compound 342, (S)-N-(3-(1-((2-ethyl-2H-pyrazolo[3,4-b]pyrazin-6-yl)amino)ethyl)phenyl)-2-(1-methyl-1H-pyrazol-4-yl) thiazole-5-carboxamide] | ≥ 1000 nM | 300 to 1000 nM
25 | C[C@H](Nc1cnc2cnn(C)c2n1)c1cccc(NC(=O)C2CC2C(F)(F)F)c1 (stereo partly drawn) [Compound 52, N-(3-((S)-1-((1-methyl-1H-pyrazolo[3,4-b]pyrazin-6-yl)amino)ethyl)phenyl)-2-(trifluoromethyl)cyclopropane-1-carboxamide] | ≥ 1000 nM | 300 to 1000 nM
26 | CCn1cc2ncc(N[C@@H](C)c3cccc(NC(=O)c4cnc(C(F)(F)F)s4)c3)nc2n1 [Compound 295, (S)-N-(3-(1-((2-ethyl-2H-pyrazolo[3,4-b]pyrazin-6-yl)amino)ethyl)phenyl)-2-(trifluoromethyl)thiazole-5-carboxamide] | < 300 nM | < 300 nM
27 | CCn1cc2ncc(N[C@@H](C)c3cccc(NC(=O)Cc4ccc(C)cn4)c3)nc2n1 [Compound 25, (S)—N-(3-(1-((2-ethyl-2H-pyrazolo[3,4-b]pyrazin-6-yl)amino)ethyl)phenyl)-2-(5-methylpyridin-2-yl)acetamide] | ≥ 1000 nM | < 300 nM
28 | Cc1ncc(C(=O)Nc2cccc([C@H](C)Nc3cnc4cnn(C)c4n3)c2)cc1F [Compound 250, (S)-5-fluoro-6-methyl-N-(3-(1-((1-methyl-1H-pyrazolo[3,4-b]pyrazin-6-yl)amino)ethyl)phenyl)nicotinamide] | < 300 nM | < 300 nM
29 | CCn1cc2ncc(N[C@@H](C)c3cccc(NC(=O)c4cnc(C)c(F)c4)c3)nc2n1 [Compound 419, (S)-N-(3-(1-((2-ethyl-2H-pyrazolo[3,4-b]pyrazin-6-yl)amino)ethyl)phenyl)-5-fluoro-6-methylnicotinamide] | 300 to 1000 nM | < 300 nM
